{"source": "paper PMC11088877", "about": "“AMP-activated protein kinase can be allosterically activated by ADP but AMP remains the key activating ligand” (Biochemical Journal, 2024)", "origin": "cited, not measured here", "molecular_target": "bacterially expressed AMPK heterotrimers (γ subunit CBS sites)", "settings": "in the presence of Mg2+ and staurosporine; read-out: estimated Kd at the CBS3 site; cited from earlier work", "data": [{"compound": "Nc1ncnc2c1ncn2[C@@H]1O[C@H](COP(=O)(O)OP(=O)(O)OP(=O)(O)O)[C@@H](O)[C@H]1O", "note": "[ATP]", "values": [{"measurement": "Kd", "value": "100 to 500", "unit": "µM"}]}]}
